# Molecular target: IRE1a (Homo sapiens, UniProt O75460)
# Assay: IRE1a Endoribonuclease Nanoluciferase Assay (XBP1 luciferase reporter in 293T cells)
# Type: cell-based
# Parameters: endogenous in cells; host or cells: 293T
# Settings: XBP1 nanoluciferase reporter in 293T cells, ER stressor; tested as the salt named
# Experimental: Compounds disclosed herein were assessed for disruption of IRE1 signaling using a IRE1a Endoribonuclease Nanoluciferase Assay. […] About 24 hours later, the cells were transfected with Effectene. In a 15 mL tube, the following was added: 2 ug XBP1 luciferase reporter plasmid (PGK-Luc2-P2A-XBP1u-Nanoluciferase-PEST); 300 ul EC buffer; and 16 ul Enhancer, followed by incubation at room temp for 5 minutes. […] 2.6 mL cDMEM media was added. Old media was aspirated from the cells, followed by addition of 7 mL fresh media. Full transfection mixture was added dropwise to cells. Cells were incubated for 6 hours, followed by trypsinization, centrifugation and resuspension in 11 mL fresh cDMEM media. 100 μL of cells were plated per a well in a 96 well plate. A day later, ER stressors of choice +/− inhibitors were added. To harvest, media was aspirated from cells completely, then 50 uL 1× passive lysis buffer (Promega: E1941) was added per well and put on shaker (300 rpm) for 30 minutes at room temperature. […] 15 uL OneGlo (nanoluciferase kit, Promega N1630) was added. Plates were spun down, placed on shaker (300 rpm) for 10 minutes. Plates were read on luminometer, 1000 ms integration time per well. 15 uL Stop and Glo (nanoluciferase kit) was added. Plates were spun down, placed on shaker (300 rpm) for 10 minutes. Plates were read on luminometer, 1000 ms second integration time per well.
# Sequence of IRE1a (O75460 19-977): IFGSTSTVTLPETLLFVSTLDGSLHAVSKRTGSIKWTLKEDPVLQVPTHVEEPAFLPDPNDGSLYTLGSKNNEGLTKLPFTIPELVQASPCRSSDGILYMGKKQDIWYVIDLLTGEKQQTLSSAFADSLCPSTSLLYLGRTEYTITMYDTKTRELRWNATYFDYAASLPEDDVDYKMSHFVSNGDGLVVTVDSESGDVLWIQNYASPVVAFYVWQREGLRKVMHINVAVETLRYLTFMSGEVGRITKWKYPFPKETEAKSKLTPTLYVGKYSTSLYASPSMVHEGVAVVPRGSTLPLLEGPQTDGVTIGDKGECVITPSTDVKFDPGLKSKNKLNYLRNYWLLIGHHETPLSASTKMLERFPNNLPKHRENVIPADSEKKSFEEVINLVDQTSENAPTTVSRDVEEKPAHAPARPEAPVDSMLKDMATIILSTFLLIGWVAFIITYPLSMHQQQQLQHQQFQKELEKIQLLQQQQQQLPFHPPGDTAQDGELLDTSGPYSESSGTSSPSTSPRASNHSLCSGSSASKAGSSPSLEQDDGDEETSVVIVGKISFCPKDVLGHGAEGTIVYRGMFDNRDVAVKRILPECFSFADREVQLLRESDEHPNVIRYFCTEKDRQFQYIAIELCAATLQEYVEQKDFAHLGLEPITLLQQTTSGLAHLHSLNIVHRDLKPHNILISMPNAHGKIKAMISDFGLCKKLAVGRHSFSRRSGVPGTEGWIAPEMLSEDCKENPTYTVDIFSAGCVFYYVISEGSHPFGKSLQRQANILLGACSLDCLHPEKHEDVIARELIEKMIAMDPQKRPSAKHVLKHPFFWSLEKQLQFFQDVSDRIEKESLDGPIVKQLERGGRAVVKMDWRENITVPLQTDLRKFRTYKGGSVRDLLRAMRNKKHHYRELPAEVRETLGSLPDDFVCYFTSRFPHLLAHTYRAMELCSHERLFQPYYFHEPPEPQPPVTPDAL
row,Structure (SMILES),EC50 [nM]
1,"COc1nc(NS(=O)(=O)c2ccccc2Cl)ccc1-c1cc(C)c2nc(N[C@H]3CC[C@H](N(C)C)CC3)ncc2c1 [Compound 133, 2-chloro-N-(5-(2-(((1r,4r)-4-(dimethylamino)cyclohexyl)amino)-8-methylquinazolin-6-yl)-6-methoxypyridin-2-yl)benzenesulfonamide]",< 5
2,"COc1nc(NS(=O)(=O)c2ccccc2Cl)ccc1-c1cc2cnc(N[C@H]3CC[C@H](N(C)C)CC3)nc2cc1C [Compound 108, 2-chloro-N-(5-(2-(((1r,4r)-4-(dimethylamino)cyclohexyl)amino)-7-methylquinazolin-6-yl)-6-methoxypyridin-2-yl)benzenesulfonamide]",< 5
3,"N[C@H]1CC[C@H](Nc2cc3ccc(-c4ccc(NS(=O)(=O)c5ccccc5Cl)c(F)c4)cc3cn2)CC1 [Compound 57, N-(4-(3-(((1r,4r)-4-aminocyclohexyl)amino)isoquinolin-7-yl)-2-fluorophenyl)-2-chlorobenzene-sulfonamide]",< 5
4,"CCc1nc(NS(=O)(=O)c2ccccc2Cl)ccc1-c1cc(CC)c2nc(N[C@H]3CC[C@H](N(C)C)CC3)ncc2c1 [Compound 117, 2-chloro-N-(5-(2-(((1r,4r)-4-(dimethylamino)cyclohexyl)amino)-8-ethylquinazolin-6-yl)-6-ethylpyridin-2-yl)benzenesulfonamide]",< 5
5,"CCc1cc(-c2ccc(NS(=O)(=O)c3cccc(F)c3Cl)nc2C)cc2cnc(N[C@H]3CC[C@H](N(C)C)CC3)nc12 [Compound 158, 2-chloro-N-(5-(2-(((1r,4r)-4-(dimethylamino)cyclohexyl)amino)-8-ethylquinazolin-6-yl)-6-methylpyridin-2-yl)-3-fluorobenzenesulfonamide]",< 5
6,"Cc1nc(NS(=O)(=O)c2ccccc2Cl)ccc1-c1cc(C(C)(F)F)c2nc(N[C@H]3CC[C@H](N(C)C)CC3)ncc2c1 [Compound 131, 2-chloro-N-(5-(8-(1,1-difluoroethyl)-2-(((1r,4r)-4-(dimethylamino)cyclohexyl)amino)quinazolin-6-yl)-6-methylpyridin-2-yl)benzenesulfonamide]",< 5
7,"CCc1cc(-c2ccc(NS(=O)(=O)c3ccccc3Cl)c(F)c2)cc2cnc(N[C@H]3CC4C[C@H](N)CC4C3)nc12 (stereo partly shown) [Compound 83, N-(4-(2-(((2r,5r)-5-aminoocta-hydropentalen-2-yl)amino)-8-ethylquinazolin-6-yl)-2-fluorophenyl)-2-chlorobenzene-sulfonamide]",50 to 100
8,"CCc1cc(-c2ccc(NS(=O)(=O)c3ccccc3Cl)c(F)c2C)cc2cnc(N[C@H]3CC[C@H](N)CC3)nc12 [Compound 71, N-(4-(2-(((1r,4r)-4-aminocyclohexyl)amino)-8-ethylquinazolin-6-yl)-2-flouro-3-methylphenyl)-2-chlorobenzene-sulfonamide]",< 5
9,"CCc1cc(-c2ccc(NS(=O)(=O)c3ccccc3Cl)c(F)c2)cc2cnc(N[C@H]3CC[C@H](NC(C)=O)CC3)nc12 [Compound 59, N-((1r,4)-4-((6-(4-((2-chlorophenyl)sulfonamido)-3-fluorophenyl)-8-ethylquinazolin-2-yl)amino)cyclohexyl) acetamide]",50 to 100
10,"COc1nc(NS(=O)(=O)c2ccccc2Cl)ccc1-c1cc(F)c2nc(N[C@H]3CC[C@H](N(C)C)CC3)ncc2c1 [Compound 148, 2-chloro-N-(5-(2-(((1r,4r)-4-(dimethylamino)cyclohexyl)amino)-8-fluoroquinazolin-6-yl)-6-methoxypyridin-2-yl)benzenesulfonamide]",< 5
11,"N[C@H]1CC[C@H](Nc2ncc3cc(-c4ncc(NS(=O)(=O)c5ccccc5Cl)cc4F)ccc3n2)CC1 [Compound 51, N-(6-(2-(((1r,4r)-4-aminocyclohexyl)amino)quinazolin-6-yl)-5-fluoropyridin-3-yl)-2-chlorobenzene-sulfonamide]",50 to 100
12,"CCc1c(F)c(-c2cc(F)c(NS(=O)(=O)c3ccccc3Cl)nc2C)cc2cnc(N[C@H]3CC[C@H](N(C)C)CC3)nc12 [Compound 162, 2-chloro-N-(5-(2-(((1r,4r)-4-(dimethylamino)cyclohexyl)amino)-8-ethyl-7-fluoroquinazolin-6-yl)-3-fluoro-6-methylpyridin-2-yl)benzenesulfonamide]",< 5
13,"CCc1cc(-c2nnc(NS(=O)(=O)c3ccccc3Cl)cc2C)cc2cnc(N[C@H]3CC[C@H](N)CC3)nc12 [Compound 67, N-(6-(2-(((lr,4r)-4-aminocyclohexyl)amino)-8-ethylquinazolin-6-yl)-5-methylpyridazin-3-yl)-2-chlorobenzene-sulfonamide]",5 to 50
14,"CCc1cc(-c2cnc(NS(=O)(=O)c3ccccc3Cl)nc2OC)cc2cnc(NC3CCC(N(C)C)CC3)nc12 (stereo not shown) [Compound 154, 2-chloro-N-(5-(2-(((1r,4r)-4-(dimethylamino)cyclohexyl)amino)-8-ethylquinazolin-6-yl)-4-methoxypyrimidin-2-yl)benzenesulfonamide]",< 5

# Now from value to compound:
row,EC50 [nM],Structure (SMILES)
1,100 to 10000,"N[C@H]1CC[C@H](Nc2ncc3cc(-c4nnc(NS(=O)(=O)c5ccccc5Cl)s4)ccc3n2)CC1 [Compound 89, N-(5-(2-(((lr,4r)-4-aminocyclohexyl)amino)quinazolin-6-yl)-1,3,4-thiadiazol-2-yl)-2-chlorobenzene-sulfonamide]"
2,100 to 10000,"CCc1cc(-c2ccc(NS(=O)(=O)c3ccccc3Cl)nc2OC)cc2cnc(N[C@H]3CC[C@@H](N(C)C)CC3)nc12 [Compound 141, 2-chloro-N-(5-(2-(((1s,4s)-4-(dimethylamino)cyclohexyl)amino)-8-ethylquinazolin-6-yl)-6-methoxypyridin-2-yl)benzenesulfonamide]"
3,5 to 50,CCc1cc(-c2ccc(NS(=O)(=O)c3ccccc3Cl)c(F)c2)cc2cnc(N[C@H]3CC4C[C@H](N)CC4C3)nc12 (stereo partly shown) [Compound 82]
4,< 5,CCc1cc(-c2ccc(NS(=O)(=O)c3ccccc3Cl)c(F)c2)cc2cnc(N[C@@H]3CC[C@@H](N)C3)nc12 [Compound 78]
5,< 5,"CCc1cc(-c2ccc(NS(=O)(=O)c3ccccc3Cl)cc2F)cc2cnc(N[C@H]3CC[C@H](N)CC3)nc12 [Compound 35, N-(4-(2-(((lr,4r)-4-aminocyclohexyl)amino)-8-ethylquinazolin-6-yl)-3-f1uorophenyl)-2-chlorobenzene-sulfonamide]"
6,< 5,"N[C@H]1CC[C@H](Nc2ncc3cc(-c4ccc(NS(=O)(=O)c5ccccc5Cl)cc4)ccc3n2)CC1 [Compound 26, N-(4-(2-(((lr,4r) 4-aminocyclohexyl)amino)quinazolin-6-yl)phenyl)-2-chlorobenzene-sulfonamide]"
7,< 5,"CCc1cc(-c2ccc(NS(=O)(=O)c3ccccc3Cl)nc2C)cc2cnc(N[C@H]3CC[C@H](NC)CC3)nc12 [Compound 122, 2-chloro-N-(5-(8-ethyl-2-(((1r,4r)-4-(methylamino)cyclohexyl)amino)quinazolin-6-yl)-6-methylpyridin-2-yl)benzenesulfonamide]"
8,< 5,"CCc1cc(-c2ccc(NS(=O)(=O)c3cccc(C)c3Cl)nc2C)cc2cnc(N[C@H]3CC[C@H](N(C)C)CC3)nc12 [Compound 160, 2-chloro-N-(5-(2-(((1r,4r)-4-(dimethylamino)cyclohexyl)amino)-8-ethylquinazolin-6-yl)-6-methylpyridin-2-yl)-3-methylbenzenesulfonamide]"

# From patent publication US12479818B2, “Treatment of fibrosis with IRE1 small molecule inhibitors” (Cornell University, priority 2019, dated 2025)
